# Laboratory results reported in patent US20140171431A1, “AZOLE HETEROCYCLIC COMPOUND, PREPARATION METHOD, PHARMACEUTICAL COMPOSITION AND USE” (priority 2011, published 2014).
# Biological target: T1, Lp-PLA2 in rabbit serum (Oryctolagus cuniculus, UniProt G1SE06)
# T1 construct: from tissue; host or cells: rabbit serum
# T1 sequence (G1SE06 22-423): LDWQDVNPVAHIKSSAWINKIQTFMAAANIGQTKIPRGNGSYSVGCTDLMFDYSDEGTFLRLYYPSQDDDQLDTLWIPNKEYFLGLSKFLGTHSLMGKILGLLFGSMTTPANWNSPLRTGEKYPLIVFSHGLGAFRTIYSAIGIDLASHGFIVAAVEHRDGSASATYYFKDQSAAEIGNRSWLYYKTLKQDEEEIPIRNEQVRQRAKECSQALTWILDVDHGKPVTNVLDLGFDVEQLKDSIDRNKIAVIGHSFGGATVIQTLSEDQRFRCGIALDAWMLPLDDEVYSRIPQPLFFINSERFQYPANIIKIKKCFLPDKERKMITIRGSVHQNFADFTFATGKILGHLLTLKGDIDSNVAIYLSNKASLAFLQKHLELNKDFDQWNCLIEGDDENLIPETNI
# Test: In vitro inhibitory activity towards the enzyme Lp-PLA2 in rabbit serum, [3H]PAF substrate
# Assay type: biochemical
# Details: rabbit serum; for inhibition at 0.1 µM: 100 nM, read-out: inhibition, %
# Experimental: The activities of compounds were measured using [^3H] labeled platelet activating factor ([^3H]PAF, Perkinelmer, Lot NET910) as the substrate. The reaction was carried out in a system containing 50 mmol/L HEPES and 150 mmol/L NaCl (pH 7.4) in a total volume of 200 μl. First, 10 μL rabbit serum and 10 μl DMSO solution of the test compound were added to the system and preincubated for 10 min at 37° C. Then 20 nM [^3H]PAF was added as listed in table 1 to start the reaction and incubated for a further 10 min at 37° C. After that, 600 μl of CHCl3/MeOH (2:1) was added and the resulting mixture was vortex mixed and the reaction was stopped. After settled for a while, the mixture was centrifugated at 12000×g for 15 min. The supernatant was transferred to a new tube and 200 μl of CHCl3 was added. The mixture was mixed by vortexing and then settled or centrifugated for 2 min. A 100 μl portion of the supernatant was then collected for radioactivity intensity measurement.
# The inhibition rate was determined by the following equation:
# Inhibitory rate (%)=1−(DPMcompound tube−DPMblank tube)/(DPMcontrol tube−DPMblank tube)*100%
# (Note: DPM is radioactivity intensity unit.)
inhibition at 1 µM [%],inhibition at 10 µM [%],inhibition at 0.1 µM [%],Structure (SMILES)
21,33.6,–,"CCn1c(Cn2c(SCc3ccc(F)cc3)nc(=O)c3c2CCC3)nnc1-c1ccc(-c2ccc(C(F)(F)F)cc2)cc1 [Example 55, 1-((4-ethyl-5-(4′-(trifluoromethyl)biphenyl-4-yl)-4H-1,2,4-triazol-3-yl)methyl)-2-(4-fluorobenzylthio)-6,7-dihydro-1H-cyclopenta[d]pyrimidin-4(5H)-one]"
14.6,–,–,"Cc1ccc(-c2ccc(Cn3ccnc3Cn3cc(Cc4cnn(C)c4)c(=O)nc3SCc3ccc(F)cc3)cc2)cc1 [Example 34, 2-(4-fluorobenzylthio)-5-((1-methyl-1H-pyrazol-4-yl)methyl)-1-((1-((4′-methylbiphenyl-4-yl)methyl)-1H-imidazol-2-yl)methyl)pyrimidin-4(1H)-one]"
10,62.6,–,"CCCCCCCC1NC(Cn2c(SCc3ccc(F)cc3)nc(=O)c3c2CCC3)=NO1 (centres unmarked) [Example 1, 2-(4-fluorobenzylthio)-1-((5-n-heptyl-4,5-dihydro-1,2,4-oxadiazol-3-yl)methyl)-6,7-dihydro-1H-cyclopenta[d]pyrimidin-4(5H)-one]"
26.6,82.7,–,"CCCCCCCCCCC1NC(Cn2c(SCc3ccc(F)cc3)nc(=O)c3c2CCC3)=NO1 (centres unmarked) [Example 2, 1-((5-n-decyl-4,5-dihydro-1,2,4-oxadiazol-3-yl)methyl)-2-(4-fluorobenzylthio)-6,7-dihydro-1H-cyclopenta[d]pyrimidin-4(5H)-one]"
64.9,–,12.6,"Cn1cc(Cc2cn(Cc3nccn3Cc3ccc(-c4ccc(C(F)(F)F)cc4)cc3)c(SCc3ccc(F)cc3)nc2=O)cn1 [Example 29, 2-(4-fluorobenzylthio)-5-((1-methyl-1H-pyrazol-4-yl)methyl)-1-((1-((4′-(trifluoromethyl)biphenyl-4-yl)methyl)-1H-imidazol-2-yl)methyl)pyrimidin-4(1H)-one]"
29,76.8,–,"O=c1nc(SCc2cccc(F)c2F)n(CC2=NOC(c3ccc(-c4ccc(C(F)(F)F)cc4)cc3)N2CCN2CCOCC2)c2c1CCC2 (centres unmarked) [Example 19, 2-(2,3-difluorobenzylthio)-1-((4-(2-morpholinoethyl)-5-(4′-(trifluoromethyl)biphenyl-4-yl)-4,5-dihydro-1,2,4-oxadiazol-3-yl)methyl)-6,7-dihydro-1H-cyclopenta[d]pyrimidin-4(5H)-one]"
88.8,–,35.9,"Cn1cc(Cc2cn(Cc3nc4ccccc4n3Cc3ccc(-c4ccc(C(F)(F)F)cc4)cc3)c(SCc3ccc(F)cc3)nc2=O)cn1 [Example 54, 2-(4-fluorobenzylthio)-5-((1-methyl-1H-pyrazol-4-yl)methyl)-1-((1-((4′-(trifluoromethyl)biphenyl-4-yl)methyl)-1H-benzo[d]imidazol-2-yl)methyl)pyrimidin-4 (1H)-one]"
32,94.8,–,"CCn1c(Cn2cc(Cc3cnn(C)c3)c(=O)nc2SCc2ccc(F)cc2)nnc1-c1ccc(-c2ccc(C(F)(F)F)cc2)cc1 [Example 58, 1-((4-ethyl-5-(4′-(trifluoromethyl)biphenyl-4-yl)-4H-1,2,4-triazol-3-yl)methyl)-2-(4-fluorobenzylthio)-5-((1-methyl-1H-pyrazol-4-yl)methyl)pyrimidin-4 (1H)-one]"
42.3,87.5,–,"CCCCCCCCCCCCn1ccnc1Cn1c(SCc2ccc(F)cc2)nc(=O)c2c1CCC2 [Example 30, 1-((1-n-dodecyl-1H-imidazol-2-yl)methyl)-2-(4-fluorobenzylthio)-6,7-dihydro-1H-cyclopenta[d]pyrimidin-4(5H)-one]"
–,–,57,"CCOC(=O)c1cnc(Cn2c(SCc3ccc(F)cc3)nc(=O)c3c2CCC3)n1Cc1ccc(-c2ccc(C(F)(F)F)cc2)cc1 [Example 50, ethyl 2-((2-(4-fluorobenzylthio)-4-oxo-4,5,6,7-tetrahydro-1H-cyclopenta[d]pyrimidin-1-yl)methyl)-1-((4′-(trifluoromethyl)biphenyl-4-yl)methyl)-1H-imidazole-5-carboxylate]"
–,12.5,–,"CCCCCCCC1NC(Cn2c(SCc3ccc(F)cc3)cc(=O)c3ccccc32)=NO1 (centres unmarked) [Example 3, 2-(4-fluorobenzylthio)-1-((5-n-heptyl-4,5-dihydro-1,2,4-oxadiazol-3-yl)methyl)quinolin-4(1H)-one]"
–,9.3,–,"CCn1c(CCCc2ccccc2)nnc1Cn1c(SCc2ccc(F)cc2)nc(=O)c2c1CCC2 [Example 59, 1-((4-ethyl-5-(3-phenylpropyl)-4H-1,2,4-triazol-3-yl)methyl)-2-(4-fluorobenzylthio)-6,7-dihydro-1H-cyclopenta[d]pyrimidin-4(5H)-one]"
50,–,2.1,"O=c1nc(SCc2ccc(F)cc2)n(Cc2nccn2Cc2ccc(-c3ccc(Cl)cc3)cc2)c2c1CCC2 [Example 32, 1-((1-((4′-chlorobiphenyl-4-yl)methyl)-1H-imidazol-2-yl)methyl)-2-(4-fluorobenzylthio)-6,7-dihydro-1H-cyclopenta[d]pyrimidin-4(5H)-one]"
23,74.3,–,"O=c1nc(SCc2ccc(F)cc2)n(CC2=NOC(c3ccc(-c4ccc(C(F)(F)F)cc4)cc3)N2CCN2CCOCC2)c2c1CCC2 (centres unmarked) [Example 25, 2-(4-fluorobenzylthio)-1-((4-(2-morpholinoethyl)-5-(4′-(trifluoromethyl)bi-phenyl-4-yl)-4,5-dihydro-1,2,4-oxadiazol-3-yl)meth-yl)-6,7-dihydro-1H-cy-clopenta[d]pyrimidin-4(5H)-one]"
90.7,–,53.1,"Cc1cnc(Cn2c(SCc3ccc(F)cc3)nc(=O)c3c2CCC3)n1Cc1ccc(-c2ccc(C(F)(F)F)cc2)cc1 [Example 40, 2-(4-fluorobenzylthio)-1-((5-methyl-1-((4′-(trifluoromethyl)biphenyl-4-yl)methyl)-1H-imidazol-2-yl)methyl)-6,7-dihydro-1H-cyclopenta[d]pyrimidin-4 (5H)-one]"
16.2,74,–,"CCCC1NC(Cn2c(SCc3ccc(F)cc3)nc(=O)c3c2CCC3)=NO1 (centres unmarked) [Example 6, 2-(4-fluorobenzylthio)-1-((5-n-propyl-4,5-dihydro-1,2,4-oxadiazol-3-yl)methyl)-6,7-dihydro-1H-cyclo-penta[d]pyrimidin-4(5H)-one]"
25,60.3,–,"O=c1nc(SCc2ccc(F)cc2)n(CC2=NOC(c3ccc(-c4ccc(C(F)(F)F)cc4)cc3)N2)c2c1CCC2 (centres unmarked) [Example 7, 2-(4-fluorobenzylthio)-1-((5-(4′-(trifluoromethyl)biphen-yl-4-yl)-4,5-dihydro-1,2,4-oxadiazol-3-yl)methyl)-6,7-dihydro-1H-cyclo-penta[d]pyrimidin-4(5H)-one]"
7.4,41.9,–,"CCCC/C=C/N1C(Cn2c(SCc3ccc(F)cc3)nc(=O)c3c2CCC3)=NOC1CCCCCCC (centres unmarked) [Example 18, (E)-2-(4-fluorobenzylthio)-1-((5-n-heptyl-4-(n-hex-1-enyl)-4,5-dihydro-1,2,4-ox-adiazol-3-yl)methyl)-6,7-di-hydro-1H-cyclopenta[d]py-rimidin-4(5H)-one]"
–,63,–,CCOC(=O)N1CCC(N2C(Cn3c(SCc4ccc(F)cc4)nc(=O)c4c3CCC4)=NOC2c2ccc(-c3ccc(C(F)(F)F)cc3)cc2)CC1 (centres unmarked) [Example 22]
16,20.4,–,"CCN(CC)CCn1c(-c2ccc(-c3ccc(C(F)(F)F)cc3)cc2)cnc1Cn1c(SCc2ccc(F)cc2)nc(=O)c2c1CCC2 [Example 38, 1-((1-(2-(diethylamino)ethyl)-5-(4′-(trifluoromethyl)biphenyl-4-yl)-1H-imidazol-2-yl)methyl)-2-(4-fluorobenzylthio)-6,7-dihydro-1H-cyclopenta[d]pyrimidin-4(5H)-one]"
90.1,–,43.2,"O=c1nc(SCc2ccc(F)cc2)n(Cc2nc3ccccc3n2Cc2ccc(-c3ccc(C(F)(F)F)cc3)cc2)c2c1CCC2 [Example 53, 2-(4-fluorobenzylthio)-1-((1-((4′-(trifluoromethyl)biphenyl-4-yl)methyl)-1H-benzo[d]imidazol-2-yl)methyl)-6,7-dihydro-1H-cyclopenta[d]pyrimidin-4(5H)-one]"
–,40,–,"CCn1c(Cc2ccc(-c3ccc(C(F)(F)F)cc3)cc2)nnc1Cn1c(SCc2ccc(F)cc2)nc(=O)c2c1CCC2 [Example 60, 1-((4-ethyl-5-((4′-(trifluoromethyl)biphenyl-4-yl)methyl)-4H-1,2,4-triazol-3-yl)methyl)-2-(4-fluorobenzylthio)-6,7-dihydro-1H-cyclopenta[d]pyrimidin-4(5H)-one]"
